Results taken from patent publication EP3272768A1, “CHIMERIC PEPTIDES USEFUL IN MALARIA PROPHYLAXIS OR TREATMENT” (priority 2016, dated 2018).
Peptide text beside a SMILES is read from it.

System: primary human hepatocytes
Assay type: cell-based
Method: A) Overlapping dodecapeptides with two amino acid shift covering the whole […] PfLRR1 protein were bound to a solid support. The membrane was incubated sequentially with PP1 protein, and anti- PP1 antibody, followed by a peroxidase-labeled secondary antibody. […] PfLRR1.1 and PfLRR1.2 are shown. B) PP1 sequence alignment between human and P. falciparum species (SEQ ID NO:16 and 15). • Figures 2A and 2B show in vitro cell viability assay. Primary hepatocytes were treated with or without various concentrations of […] or […] peptides. Absorbance was recorded 72h after. […] The assay was done using parasitemia of 0.5% and hematocrit of 1%. The peptides were added at various concentrations and incubated for 48h and then, fixed. Samples were analyzed by flow cytometry. Results are expressed as percentage of growth inhibition. • Figures 4A and 4B show in vitro effect of chimeric peptides PfLRR1.1 (peptide 1) and PfLRR1.2 (peptide 2) on the hepatic stage of the P. falciparum. […] The culture was fixed with paraformaldehyde (PFA) and analysed by fluorescence microscopy. • Figures 5A and 5B show in vitro effect of peptides PfLRR1.1 and PfLRR1.2 on the hepatic stage of the P. vivax. […] The culture was fixed with PFA and analysed by fluorescence microscopy.
The cell viability was determined using a colorimetric assay based on 3-(4,5-dimethylthiazol- 2-yl)-2,5 diphenyltetrazolium bromide (MTT). […]

Question: `CC[C@H](C)[C@H](NC(=O)[C@H](CCCCN)NC(=O)[C@H](CCCCN)NC(=O)[C@H](CCCCN)NC(=O)[C@H](CCCCN)NC(=O)[C@@H](N)C(C)C)C(=O)N[C@@H](CCCCN)C(=O)N[C@@H](C)C(=O)N[C@@H](CCC(=O)O)C(=O)N[C@H](C(=O)N[C@@H](CCCCN)C(=O)N[C@H](C(=O)N[C@H](C(=O)N[C@@H](CCC(=O)O)C(=O)N[C@@H](CC(N)=O)C(=O)N[C@@H](CC(C)C)C(=O)N[C@@H](CCC(N)=O)C(=O)N[C@@H](CC(N)=O)C(=O)N[C@@H](CS)C(=O)N[C@@H](CCCCN)C(=O)N[C@@H](CCCCN)C(=O)N[C@@H](CC(C)C)C(=O)N[C@@H](CCCNC(=N)N)C(=O)N[C@@H](CC(C)C)C(=O)N[C@@H](CC(C)C)C(=O)N[C@@H](CCC(=O)O)C(=O)N[C@@H](CC(C)C)C(=O)NCC(=O)N[C@@H](Cc1ccc(O)cc1)C(=O)N[C@@H](CC(N)=O)C(=O)N[C@@H](CCCCN)C(=O)N[C@H](C(=O)N[C@@H](CCCNC(=N)N)C(=O)N[C@@H](CCSC)C(=O)O)[C@@H](C)CC)[C@@H](C)CC)[C@@H](C)CC)[C@@H](C)CC` [PfLRR1.2] (H-VKKKKIKAEIKIIENLQNCKKLRLLELGYNKIRM-OH) was tested. Which “toxicity for the host cell (primary human hepatocyte)” value did it give?
Answer: Its value is “not toxic”.

Question: How did the “toxicity for the host cell (primary human hepatocyte)” value turn out when `CC[C@H](C)[C@H](NC(=O)[C@H](CCCCN)NC(=O)[C@H](CCCCN)NC(=O)[C@H](CCCCN)NC(=O)[C@H](CCCCN)NC(=O)[C@@H](N)C(C)C)C(=O)N[C@@H](CCCCN)C(=O)N[C@@H](C)C(=O)N[C@@H](CCC(=O)O)C(=O)N[C@H](C(=O)N[C@@H](CCCCN)C(=O)N[C@H](C(=O)N[C@@H](CCC(=O)O)C(=O)N[C@@H](CC(N)=O)C(=O)N[C@@H](Cc1ccc(O)cc1)C(=O)N[C@@H](CCCNC(=N)N)C(=O)N[C@@H](CCCCN)C(=O)N[C@H](C(=O)N[C@H](C(=O)N[C@H](C(=O)N[C@@H](Cc1c[nH]cn1)C(=O)N[C@H](C(=O)N[C@@H](CC(C)C)C(=O)N1CCC[C@H]1C(=O)N[C@@H](CCC(N)=O)C(=O)N[C@@H](CC(C)C)C(=O)N[C@@H](CCCCN)C(=O)N[C@@H](CCC(N)=O)C(=O)N[C@@H](CC(C)C)C(=O)N[C@@H](CC(=O)O)C(=O)N[C@@H](C)C(=O)N[C@@H](CC(C)C)C(=O)O)[C@@H](C)CC)[C@@H](C)CC)[C@@H](C)CC)[C@@H](C)O)[C@@H](C)CC)[C@@H](C)CC` [PfLRR1.1] (H-VKKKKIKAEIKIENYRKTIIHILPQLKQLDAL-OH) was run?
Answer: The value was “not toxic”.
